# Measurements from patent US8426463B2, “[((1R,2S,5R)-2-isopropyl-5-methyl-cyclohexanecarbonyl)-amino]-acetic acid isopropyl ester and related compounds and their use in therapy” (priority 2011, dated 2013).
# What was measured:
# [1] = system: dorsal surface of the tongue; conditions: 6 subjects; filter paper on dorsal surface of tongue, 30 seconds; cited from earlier work
# allergic conjunctivitis = test: Study 3: eye wipes in a subject with allergic conjunctivitis; format: in vivo, human
# Description: A laboratory scientist suffered from seasonal allergic conjunctivitis. This condition was severely aggravated when […] started doing experiments with laboratory animals (rats and mice) and […] became sensitized to the associated allergens. The conjunctivitis was not relieved by oral or topical eye drops containing antihistamines and the subject was reluctant to consider the use of anti-inflammatory steroid ointments. Upon examination, their eyes were blood-shot and watery and they kept rubbing their eyelids with their fingers even though they knew this action may further aggravate the itch and discomfort. They volunteered to try eye wipes containing 1.0 mg/mL of Gly-O-iPr. The relief of itch and discomfort was obtained within 5 minutes and lasted for at least four hours.
# cough = test: Study 5: ODT in a smoker with chili pepper induced coughing fit; format: in vivo, human; conditions: two ODT tablets (2.5 mg each); one subject
# Description: A venture capitalist lived a stress-filled life and smoked two packs of cigarettes per day. […] They tried the ODT containing 2.5 mg of Gly-O-iPr and said that it felt great, but they were afraid that if they used it, they would smoke more. Later that evening, they went to a banquet of Northern Chinese cuisine and they started coughing when they ate a piece of fish that was heavily spiced with chili peppers. Everyone at the dinner table was alarmed by their coughing fit which was quite intense and made their face turn bright red.
# [2] = system: dry, scratchy throat with cough; test: Study 4: chewing gum and ODT in a subject with scratchy throat and cough; format: in vivo, human
# Description: A person's child moved away from their neighborhood to go to college and they became responsible for taking care of their two cats. Initially everything was all right, but then they became sensitized to the litter box dust generated when they were cleaning after the cats. They developed a dry, scratchy throat with cough, and this was severely aggravated by their seasonal allergy to grass pollen, so that they were constantly clearing their throat. […] After about two weeks of coughing and discomfort, they agreed to try Gly-O-iPr, first spread as 3 mg per wafer of Wrigley spearmint chewing gum, and then later formulated in an orally disintegrating tablet at 3 mg per unit dose. The medicated chewing gum and the ODT both provided relief within five minutes after administration. The sense of discomfort in the throat was attenuated and the effect lasted for about four hours and the dose could be repeated with the same beneficial effect. This individual preferred the ODT method of delivery as they considered this more efficient than chewing gum. After using the ODT containing Gly-O-iPr for ten days on an “as-needed basis” […] cough and scratchy throat disappeared and they are now well.
# [3] = system: philtrum skin (keratinized stratified epithelium); test: Philtrum assay: duration of cooling on keratinized stratified epithelium; format: in vivo, human; conditions: applied to the philtrum skin at 5 mg/mL in Aquaphor ointment
# Description: Bioassay on Keratinized Stratified Epithelium: Philtrum Assay
# The philtrum is the midline groove above the border of the upper lip. The site of drug testing was the skin above the upper lip (above the vermilion border of the lips), on the philtrum, lateral to the philtrum until the nasolabial folds, and sometimes on the lower nostrils (subnasale). This part of the face is known to be densely innervated with cool/cold receptors, second only to the surfaces of the eyeball and anogenitalia. It is also known from the scientific literature that the area around the lips has a high density of “cold spots” (see, e.g., Dhaka et al., “Visualizing cold spots: TRPM8-expressing sensory neurons and their projections”, J. Neuroscience, Vol. 28, pp. 566-575, 2008).
# To test for anti-nociceptive activity, the test substance is first dissolved (5 mg/mL) in an ointment (Aquaphor®, which is 41% petrolatum, and the rest mineral oil, ceresin and lanolin alcohol) and singly applied (40 to 70 mg) onto the philtrum skin surface using a plastic stick.
# At this locus, cool and cold sensations in the skin may be experienced and rated for time of onset and intensity. The intensity of the subjective skin sensation is rated as 0, 1, 2 or 3 with: 0 as no change; 1 as slight coolness, or cold; 2 as clear-cut signal of coolness or cold; and 3 as robust cooling or cold. The intervals for recording are 5 to 10 minutes, until two successive zeroes are obtained. The onset of drug action is taken as the time to reach 2 units of coolness intensity, and offset of drug action is the time when coolness intensity drops below 2, after previously surpassing 2 units. The duration of cooling action is defined as the offset time minus the onset time.
# [4] = system: ocular surface (non-keratinized stratified epithelium); test: Ocular surface bioassay: duration of cooling after towelette wipe on closed eyelids; format: in vivo, human; conditions: for Non-Keratinized Stratified Epithelia (NKSE) Ocular Surface (min), duration of cooling: applied to the closed eyelids using a towellette at 1 mg/mL in 5%-95% v/v ethanol-distilled water; for rank order of duration of action of ocular wipes: six subjects, randomized double-blind study, three trials per wipe
# Description: Bioassay on Non-Keratinized Stratified Epithelium: Ocular Surface
# For testing on the ocular surface, a towelette containing the test compound was used as the delivery unit. The test compound was dissolved first in absolute ethanol and then distilled water was added to form a standard 1 mg/mL solution in a 3 to 5% by weight ethanol-water solution. Three mL of the test solution was then added to a 0.4 g cotton rectangle (50 mm×60 mm) (CS-being, Daisan Cotton, Japan) and individually sealed with a vacuum apparatus (Foodsaver®, Jarden Corp.). Samples were stored in a freezer or refrigerator and thawed to room temperature before use. Wiping with the cotton pad delivers 40 to 45 μL of liquid composition to the closed eyelids (˜20 to 22 μL per eye surface). Thus, if the concentration of the test compound was 1 mg/mL, the dose delivered to both eyes is a total of ˜40 to 42 μg, or ˜20 μg per eye. The presence or absence of cooling sensations felt on the ocular surface was noted as being present or absent at 5 to 10 minute intervals until no coolness was noticeable in two successive test intervals. Only the duration of cooling on the ocular surface was recorded, without an attempt to quantify the intensity of the sensation.
# [5] = system: oropharyngeal surface (non-keratinized stratified epithelium); test: Oropharyngeal surface bioassay: ODT followed by chili pepper sauce challenge; format: in vivo, human; set-up: key to Non-Keratinized Stratified Epithelia (NKSE) Oropharyngeal Surface, attenuation of chili pepper sauce irritation: If there was no attenuation of the challenge stimuli, the score was (0); if there was partial inhibition, the score was (+); if there was complete attenuation of the irritant signal, the score was (++); conditions: for sensation on the oropharyngeal surface / effect on the response to the chili pepper sauce: ODT; for Non-Keratinized Stratified Epithelia (NKSE) Oropharyngeal Surface, attenuation of chili pepper sauce irritation: ODT containing 2.5 to 3 mg of active ingredient, chili pepper sauce 45 minutes later; for effect on the response to the chili pepper sauce: same test conditions
# Description: Bioassay on Non-Keratinized Stratified Epithelium: Oropharyngeal Surface
# A number of irritants have been evaluated for evoking the cough sensation as a measure of pharygeal sensitivity (see, e.g., Morice et al., 2001, “Cough Challenge in the Assessment of Cough Reflex”, Brit. J. Clin. Pharmacol., Vol. 52, pp. 365-375). Usually, citric acid or capsaicin is delivered via the inhalation route to volunteers and the number of coughs counted. […] The chili pepper sauce mixes with the saliva and the saliva is then deposited on the posterior oropharynx. The chili pepper sauce used was Yank Sing® Chili Pepper Sauce (YS Gourmet Productions, Inc., PO Box 26189, San Francisco, Calif. 94126) and is a well-known condiment for use with dim sum (Chinese tea lunch). The sensations associated with the chili pepper sauce are located in the posterior wall of the mouth and are clearly recognized by the test subject and associated with a desire to clear the throat.
# The ODT was formulated by taking an ingredient, dissolving it in absolute ethanol, and then adding 10% by weight of maltitol, and 90% by weight of mannitol, and then an equal volume of distilled water. The mixture was the stirred with a glass rod, and dispensed onto a piece of wax paper with a disposable plastic pipette. The individual dried tablets weighed on average 150 mg each and when on the dorsal surface of the tongue, dissolved completely in saliva and coated the oropharyngeal surface. On average, the amount of the test substance was 2.5 to 3 mg per tablet.
# To test for anti-nociceptive activity, the ODT containing the test compound was first administered onto the dorsal surface of the tongue; 45 to 50 minutes later, the chili-pepper sauce challenge is administered. At this time, the coolness sensations from the test compound have dissipated and the test is to determine if an anti-nociceptive effect remains. Results were reported as follow: If there was no attenuation of the challenge stimuli, the score was (0), if there was partial inhibition, the score was (+), and if there was complete attenuation of the irritant signal, the score was (++). In the presence of an ODT containing an active ingredient that results in a (++) score, the irritative signals were completely absent, yet the salty taste used in the soy sauce of the condiment could be readily identified and tasted.
# In one formulation (used in the biological evaluation studies described herein), orally disintegrating tablets (ODTs) were prepared using an 80:20 by weight mixture of mannitol-maltitol (Pearlitol™ and Sweetpearl™, Roquette Freres, France). This carrier has the advantage of completely masking bitter tastes that might be present in some of the test compounds. The test compound was first mixed with the mannitol-maltitol using a mortar and pestle, and then suspended in an equal volume of 10:90 v/v ethanol-distilled water. A disposable pipette was then used to aliquot the liquid mixture onto a sheet of wax paper and dried at room temperature. The dried tablets were then weighed and sorted. It was found by experiment that an 80 mg tablet containing 2 to 3 mg of test compound dissolved within 15 seconds when placed on the dorsal surface of the tongue and provided a good test dose.
# [6] = system: Salmonella typhimurium tester strain TA1535; test: Ames test in TA1535 with and without S9-mix (Notox)
# [7] = system: pharyngeal and esophageal receptors; test: Cooling sensations in the chest after Gly-O-iPr with or without icilin; set-up: species or system human; conditions: in vivo
# Description: The cooling sensations in the chest that result from the Gly-O-iPr/icilin combination may provide symptomatic relief of discomfort in the airways (larynx, trachea, bronchi) in conditions such as asthma and COPD.
# TA1535 strain = conditions: MSDS Number 2984; cited from earlier work
# [8] = 3 mg per chewing gum wafer or 3 mg ODT, one subject
SMILES,"Keratinized Stratified Epithelia Philtrum Skin (min), duration of cooling [3]","Non-Keratinized Stratified Epithelia (NKSE) Ocular Surface (min), duration of cooling [4]",rank order of duration of action of ocular wipes [4],sensation on the oropharyngeal surface [5],"Non-Keratinized Stratified Epithelia (NKSE) Oropharyngeal Surface, attenuation of chili pepper sauce irritation [5]",effect on the response to the chili pepper sauce [5],further results
"CC(C)[C@@H]1CC[C@@H](C)C[C@H]1O [(−)-menthol, (1R,2S,5R)-2-isopropyl-5-methyl-cyclohexanol]",–,–,–,–,–,–,average Threshold for cooling on the tongue [1]: 0.25 µg
"CC(C)OC(=O)CNC(=O)[C@@H]1C[C@H](C)CC[C@H]1C(C)C [Gly-O-iPr, [((1R,2S,5R)-2-isopropyl-5-methyl-cyclohexanecarbonyl)-amino]-acetic acid isopropyl ester]",27 min,300 min,Gly-O-iPr>>Gly-O-nPr>Gly-O-Et,refreshing cooling sensation,++,blocked the response to the chili pepper sauce,"time to relief of itch and discomfort (allergic conjunctivitis; eye wipes containing 1.0 mg/mL, one subject): ≤ 5 min; over-all itchiness and redness (allergic conjunctivitis; wipes as needed for three days): reduced significantly; effect on coughing fit (cough): the cough stopped within a few minutes; duration of attenuated throat discomfort [2, 8]: about four; time to relief after administration [2, 8]: five; cough and scratchy throat ([2]; ODT as needed for ten days): disappeared; duration of cooling effect on the ocular surface, on average ([4]; 1 mg/mL): 5 h; duration of cooling on the ocular surface ([4]; test concentration increased to 1.5 mg/mL): about 6.5 hours; mutagenic activity, conclusion ([6]; TA1535, 3 to 5000 μg/plate, absence and presence of S9-mix): not mutagenic; bacterial background lawn ([6]; any of the concentrations tested (3 to 5000 μg/plate)): not reduced; precipitation on the plates ([6]; top dose of 5000 μg/plate, dissolved in DMSO): did not precipitate; cooling sensations in the chest [7]: less effective"
"CCCOC(=O)CNC(=O)[C@@H]1C[C@H](C)CC[C@H]1C(C)C [Gly-O-nPr, [((1R,2S,5R)-2-isopropyl-5-methyl-cyclohexanecarbonyl)-amino]-acetic acid n-propyl ester]",42 min,54 min,Gly-O-iPr>>Gly-O-nPr>Gly-O-Et,–,0,not effective,–
"CCCCOC(=O)CNC(=O)[C@@H]1C[C@H](C)CC[C@H]1C(C)C [Gly-O-nBu, [((1R,2S,5R)-2-isopropyl-5-methyl-cyclohexanecarbonyl)-amino]-acetic acid n-butyl ester]",38 min,35 min,–,–,0,–,–
"CCOC(=O)CNC(=O)[C@@H]1C[C@H](C)CC[C@H]1C(C)C [Gly-O-Et, [((1R,2S,5R)-2-isopropyl-5-methyl-cyclohexanecarbonyl)-amino]-acetic acid ethyl ester]",24 min,15 min,Gly-O-iPr>>Gly-O-nPr>Gly-O-Et,refreshing cooling sensation,0,not effective,"mutagenicity, Ames test (TA1535 strain): weakly mutagenic; increase in duration of cooling on the ocular surface ([4]; concentration increased from 1 mg/mL to 2 mg/mL): 15 min; increase in duration of cooling on the ocular surface ([4]; concentration increased from 1 mg/mL to 5 mg/mL): 22 min"
"COC(=O)CNC(=O)[C@@H]1C[C@H](C)CC[C@H]1C(C)C [Gly-O-Me, [((1R,2S,5R)-2-isopropyl-5-methyl-cyclohexanecarbonyl)-amino]-acetic acid methyl ester]",10 min,5 min,–,–,0,–,–
